According to patent publication US20150209315A1 (Cumberland Pharmaceuticals, priority 2009, published 2015):

Tested on: post-operative adult patients
Assay: Example 1: patient self-assessment of pain, VAS with movement
Format: in vivo, human
Design: key to VAS Score measured with Movement (median): VAS 0-10: 0 = no pain, 10 = intense pain
Details: 400 mg
Protocol: Pain was measured by the patient's self-assessment using a Visual Analog Scale (VAS) from 0-10 with 0 being no pain and 10 being intense pain. This was measured both at rest and with movement. […] […] To account for the missing pain assessments, two missing value approaches as described in the statistical analysis plan were used to impute values. To determine the difference in overall pain at differing time-points, the area under the VAS pain curve during the first 24 hours, between 6 and 24 hours and between 12 and 24 hours were analyzed.

CC(C)Cc1ccc(C(C)C(=O)O)cc1 (stereo not shown) [Ibuprofen, 2-(4-isobutylphenyl) propionic acid]
VAS Score measured with Movement (median) (EEP, 1-Hour): 7.5 | VAS Score measured with Movement, % Reduction vs Placebo (EEP, 1-Hour): 6.2% | VAS Score measured with Movement (median) (EEP, 2-Hour): 7.2 | VAS Score measured with Movement, % Reduction vs Placebo (EEP, 2-Hour): −1.4% | VAS Score measured with Movement (median) (EEP, 3-Hour): 6.2 | VAS Score measured with Movement, % Reduction vs Placebo (EEP, 3-Hour): −3.3% | VAS Score measured with Movement (median) (EEP, 6-Hour): 5.7 | VAS Score measured with Movement, % Reduction vs Placebo (EEP, 6-Hour): −14.0% | VAS Score measured with Movement (median) (EEP, 9-Hour): 4.8 | VAS Score measured with Movement, % Reduction vs Placebo (EEP, 9-Hour): 4.0% | VAS Score measured with Movement (median) (EEP, 12-Hour): 4.5 | VAS Score measured with Movement, % Reduction vs Placebo (EEP, 12-Hour): 10.0% | VAS Score measured with Movement (median) (EEP, 15-Hour): 4.0 | VAS Score measured with Movement, % Reduction vs Placebo (EEP, 15-Hour): 20.0% | VAS Score measured with Movement (median) (EEP, 18-Hour): 4.3 | VAS Score measured with Movement, % Reduction vs Placebo (EEP, 18-Hour): 14.0% | VAS Score measured with Movement (median) (EEP, 21-Hour): 4.0 | VAS Score measured with Movement, % Reduction vs Placebo (EEP, 21-Hour): 20.0% | VAS Score measured with Movement (median) (EEP, 24-Hour): 5.0 | VAS Score measured with Movement, % Reduction vs Placebo (EEP, 24-Hour): −13.6% | VAS Score measured with Movement (median) (EEP, 27-Hour): 4.6 | VAS Score measured with Movement, % Reduction vs Placebo (EEP, 27-Hour): −2.2% | VAS Score measured with Movement (median) (EEP, 30-Hour): 4.0 | VAS Score measured with Movement, % Reduction vs Placebo (EEP, 30-Hour): 2.4% | VAS Score measured with Movement (median) (EEP, 33-Hour): 3.9 | VAS Score measured with Movement, % Reduction vs Placebo (EEP, 33-Hour): −2.6% | VAS Score measured with Movement (median) (EEP, 36-Hour): 3.6 | VAS Score measured with Movement, % Reduction vs Placebo (EEP, 36-Hour): 7.7% | VAS Score measured with Movement (median) (EEP, 39-Hour): 3.1 | VAS Score measured with Movement, % Reduction vs Placebo (EEP, 39-Hour): 8.8% | VAS Score measured with Movement (median) (EEP, 42-Hour): 3.3 | VAS Score measured with Movement, % Reduction vs Placebo (EEP, 42-Hour): 5.7% | VAS Score measured with Movement (median) (EEP, 45 Hour): 3.3 | VAS Score measured with Movement, % Reduction vs Placebo (EEP, 45 Hour): −6.5% | VAS Score measured with Movement (median) (EEP, 48-Hour): 3.2 | VAS Score measured with Movement, % Reduction vs Placebo (EEP, 48-Hour): −33.3% | VAS Score measured with Movement (median) (ITT, 1-Hour): 7.5 | VAS Score measured with Movement, % Reduction vs Placebo (ITT, 1-Hour): 6.2% | VAS Score measured with Movement (median) (ITT, 2-Hour): 7.4 | VAS Score measured with Movement, % Reduction vs Placebo (ITT, 2-Hour): −1.4% | VAS Score measured with Movement (median) (ITT, 3-Hour): 6.3 | VAS Score measured with Movement, % Reduction vs Placebo (ITT, 3-Hour): 0.0% | VAS Score measured with Movement (median) (ITT, 6-Hour): 5.7 | VAS Score measured with Movement, % Reduction vs Placebo (ITT, 6-Hour): 0.0% | VAS Score measured with Movement (median) (ITT, 9-Hour): 4.7 | VAS Score measured with Movement, % Reduction vs Placebo (ITT, 9-Hour): 9.6% | VAS Score measured with Movement (median) (ITT, 12-Hour): 4.5 | VAS Score measured with Movement, % Reduction vs Placebo (ITT, 12-Hour): 10.0% | VAS Score measured with Movement (median) (ITT, 15-Hour): 3.9 | VAS Score measured with Movement, % Reduction vs Placebo (ITT, 15-Hour): 22.0% | VAS Score measured with Movement (median) (ITT, 18-Hour): 4.3 | VAS Score measured with Movement, % Reduction vs Placebo (ITT, 18-Hour): 14.0% | VAS Score measured with Movement (median) (ITT, 21-Hour): 4.1 | VAS Score measured with Movement, % Reduction vs Placebo (ITT, 21-Hour): 16.3% | VAS Score measured with Movement (median) (ITT, 24-Hour): 4.6 | VAS Score measured with Movement, % Reduction vs Placebo (ITT, 24-Hour): −2.2% | VAS Score measured with Movement (median) (ITT, 27 Hour): 4.6 | VAS Score measured with Movement, % Reduction vs Placebo (ITT, 27 Hour): −4.5% | VAS Score measured with Movement (median) (ITT, 30-Hour): 4.0 | VAS Score measured with Movement, % Reduction vs Placebo (ITT, 30-Hour): 0.0% | VAS Score measured with Movement (median) (ITT, 33-Hour): 3.8 | VAS Score measured with Movement, % Reduction vs Placebo (ITT, 33-Hour): 0.0% | VAS Score measured with Movement (median) (ITT, 36-Hour): 3.6 | VAS Score measured with Movement, % Reduction vs Placebo (ITT, 36-Hour): 10.0% | VAS Score measured with Movement (median) (ITT, 39-Hour): 3.1 | VAS Score measured with Movement (median) (ITT, 42-Hour): 3.3 | VAS Score measured with Movement, % Reduction vs Placebo (ITT, 42-Hour): 2.9%
